Test results published in patent publication US10351501B2, “Gem difluorocompounds as depigmenting or lightening agents” (TFCHEM, priority 2015, dated 2019).

How the values were obtained:
[1] = Antioxidant activity by the spectrophotometric method of the free radical DPPH•; conditions: molar ratio antioxidant/DPPH•; absorbance at T = 30 min
Source text: The aim of the study was to evaluate the antioxidant activity of compound 11 by the spectrophotometric method of the free radical DPPH• (2,2-diphenyl-1-picrylhydrazyl). Indeed, antioxidants react with DPPH^• (purple), a stable free radical which is reduced to DPPH-H (yellow), and in consequence, the absorbance is decreased from the DPPH^• radical to the DPPH-H form. The degree of discoloration indicates the scavenging potential of the antioxidant compounds in terms of hydrogen donating ability (Popovici et al. Revue de génie industriel 2009, 4, 25-39).
The tested compounds were: Trolox ((±)-6-hydroxy-2,5,7,8-tetramethylchromane-2-carboxylic acid, Sigma Aldrich), as reference, and compound 11.
A stock solution of DPPH• was prepared at 200 μmol/mL in methanol and diluted in methanol in order to have a final concentration of around 150 μmol/mL to obtain a DO close to 0.9 in a plate of 96 wells. The antioxidant stock solutions were prepared at 1 mg/mL in methanol and the tested solutions were prepared from these antioxidant stock solutions as described in Table 7 below.
50 μL of each solution of antioxidant was added to the wells. Then, 200 μL of DPPH^• was added to each well.
The blank was prepared with only 250 μl of methanol and the negative control was prepared with 200 μL DPPH• and 50 μL of methanol.
The analysis was started immediately after the addition of DPPH• lasting for 2 hours (readings every 20 seconds). The absorbance was read at 515 nm. Each experiment was performed three times and had shown that the absorbance decreases while the concentration of antioxidant increased.
The activity of DPPH• is a percentage calculated as the ratio of A/An×100%.
The EC50 is expressed as a molar ratio of antioxidant (compound 11)/DPPH• (Popovici et al. Revue de génie industriel 2009, 4, 25-39). The EC50 was determined from the graph representing the percentage of DPPH• in function of the above mentioned molar ratio (moles of compound 11/moles of DPPH•).
The antioxidant activity of compound 11 was compared to that of Trolox used as a reference (considered as 100%).

human tyrosinase = assay: HumanLike Tyrosinase Assay kit (Feldan), L-Tyrosine to dopachrome, OD at 490 nm; format: biochemical; conditions: for OD at 490 nm: 1.12 mM
Method: The efficacy of compound 16 was evaluated by the inhibition of human tyrosinase in tubo and compared to the compound 11.
The assay was performed with a ready-to-use kit from Feldan Inc (Canada): the HumanLike Tyrosinase Assay kit (ref A021-a-001Kit).
The protocol was performed as described in the instructions for use of the manufacturer. Briefly, this kit is intended for the determination of human tyrosinase activity in presence of different inhibitors. The kit measures the conversion of L-Tyrosine into a dopachrome complex absorbing at 490 nm. The time course of the assay is 20 minutes, after which the results are analyzed and compared.
The compounds 11 and 16 have been tested at a final concentration of 1.12 mM.
The measured absorbances at 490 nm are reported in the table 5 and plotted in function of time in the FIG. 1.
Moreover for each compound the efficacy as tyrosinase inhibitor was calculated using the following formula: […]

[2] = In vitro stability: hydroquinone released in various chemical conditions (HPLC-UV/DAD); format: physicochemical
Method: The stability of compound 11 was evaluated by the released of hydroquinone, which is a potentially toxic compound, in different chemical conditions (extreme conditions, simulating the application of these molecules on the skin) and it was compared to the deoxyarbutin.
This study involved different tests as degradation test and chemical stability (various chemical solutions, pH and temperatures).
Analytical Method (HPLC-UV/DAD Method)
Column Atlantis dC18 150 mm*4.6 mm*3 μm Waters, 30° C. Injection 50 μl, 25° C. λ: 220 nm, 265 nm, 285 nm. A-Acetonitrile B-Water; 0.8 ml/min; elution gradient: […]
This analytical method gave linear response for compound 11, Deoxyarbutin and Hydroquinone from 25 ng/mL to 1000 ng/mL. Dilution of samples had to be taken into account for each stability study to calculate the LLOQ of each compound.
The tested compounds are incubated in different solutions, at different times (see table 1). Then the analytical method was used to quantify remaining compounds and potential hydroquinone released (as possible degradation of compounds).
Hydroquinone (HQ) apparition is expressed as a percentage of initial compound 11 or Deoxyarbutin. The calculation was done in molar units and the limit of quantification fluctuates with the initial concentration.

[3] = In vitro human skin absorption, Franz diffusion cell: quantification in the receptor fluid (flux); format: in vitro ADME; conditions: 200 μl at 2 mg/ml in water on human skin explant; receptor fluid T0 h to T24 h
Source text: The aim of this study was to evaluate the absorption of compound 11 applied to excised human skin.
In vitro method using a Franz diffusion cell allows measuring the diffusion of chemicals into and across skin.
The tested compound is applied to the surface of a human skin explant separating the two chambers of a Franz diffusion cell. The compound remains on the skin for a specified time under specified conditions. The receptor fluid is sampled at time points throughout the experiment and analyzed for the tested compound. The skin may also be fractioned for separate analysis in epidermis or dermis layers.
The transcutaneous absorption was measured on human skin collected from the abdominoplasty of a single donor. At reception, the skin was defatted and cut in several fragments in order to perform Franz experiment. […]
The tested compounds were quantified, at T0 h and T24 h in the receptor solution bathing the inner surface of the skin (determination of flux), or at T24 h in the fractionated skin extracts (epidermis or dermis). […]
Sampling: 500 μL from the receptor fluid were removed at T0 h (replaced by Ringer solution) and at T24 h. These samples were analyzed by LC-MS/MS method for quantification of compound 11 and deoxyarbutin (results not shown). The quantity measured allowed to calculate a flux and to compare the absorption profile across the skin of compound 11 and deoxyarbutin.

[4] = molecular target: T1, human recombinant tyrosinase (Homo sapiens, UniProt P14679); assay: Inhibition of human tyrosinase in tubo (L-DOPA substrate, OD at 477 nm), IC50; format: biochemical; conditions: Tyrosinase Concentration 300 U/mL
T1 sequence (P14679 19-529): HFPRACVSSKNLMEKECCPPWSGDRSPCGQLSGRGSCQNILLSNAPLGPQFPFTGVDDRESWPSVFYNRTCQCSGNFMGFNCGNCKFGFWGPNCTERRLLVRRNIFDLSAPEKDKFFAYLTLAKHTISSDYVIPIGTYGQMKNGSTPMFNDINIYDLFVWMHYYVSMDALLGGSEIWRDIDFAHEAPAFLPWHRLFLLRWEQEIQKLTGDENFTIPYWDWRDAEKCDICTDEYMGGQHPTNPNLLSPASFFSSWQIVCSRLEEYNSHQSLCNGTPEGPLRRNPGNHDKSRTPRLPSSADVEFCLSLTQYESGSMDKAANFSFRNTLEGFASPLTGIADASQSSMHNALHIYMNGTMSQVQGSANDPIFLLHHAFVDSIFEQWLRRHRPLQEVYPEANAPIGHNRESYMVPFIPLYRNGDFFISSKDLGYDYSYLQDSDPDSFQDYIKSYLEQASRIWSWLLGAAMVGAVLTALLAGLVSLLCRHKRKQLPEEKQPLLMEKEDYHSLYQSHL
Method: Substrate solution: L-DOPA (1 mg/mL) Solution B (L-DOPA 20 mg/Purified water up to 20 mL)
Preparation of Test Solutions (for IC50 Test—Examples for Deoxyarbutin)
Inhibitors solutions deoxyarbutin (1 mg/mL): Deoxyarbutin 20 mg in purified water up to 20 mL
This assay used a 96-well plate. Test solutions and controls were made several times.
The results were calculated from the OD measured at time point 20 min.
The determination of half maximal inhibitory concentration (IC50) was performed using the following formula.

## Cc1c(C)c2c(c(C)c1O)CCC(C)(C(=O)O)O2 (racemic) [Trolox, (±)-6-hydroxy-2,5,7,8-tetramethylchromane-2-carboxylic acid, reference compound]
[1]
  EC50 (Ratio antioxidant/DPPH•) Mean: 0.240

## Oc1ccc(OC2CC(O)CCC2(F)F)cc1 (stereo not shown) [Compound 16]
Human tyrosinase; time 0 min
  OD at 490 nm: 0.0000
Human tyrosinase; time 1 min
  OD at 490 nm: 0.0105
Human tyrosinase; time 2 min
  OD at 490 nm: 0.0185
Human tyrosinase; time 3 min
  OD at 490 nm: 0.0285
Human tyrosinase; time 4 min
  OD at 490 nm: 0.0385
Human tyrosinase; time 5 min
  OD at 490 nm: 0.0505
Human tyrosinase; time 6 min
  OD at 490 nm: 0.0605
Human tyrosinase; time 7 min
  OD at 490 nm: 0.0720
Human tyrosinase; time 8 min
  OD at 490 nm: 0.0815
Human tyrosinase; time 9 min
  OD at 490 nm: 0.0925
Human tyrosinase; time 10 min
  OD at 490 nm: 0.1025
Human tyrosinase; time 11 min
  OD at 490 nm: 0.1125
Human tyrosinase; time 12 min
  OD at 490 nm: 0.1225
Human tyrosinase; time 13 min
  OD at 490 nm: 0.1330
Human tyrosinase; time 14 min
  OD at 490 nm: 0.1435
Human tyrosinase; time 15 min
  OD at 490 nm: 0.1545
Human tyrosinase; time 16 min
  OD at 490 nm: 0.1650
Human tyrosinase; time 17 min
  OD at 490 nm: 0.1765
Human tyrosinase; time 18 min
  OD at 490 nm: 0.1885
Human tyrosinase; time 19 min
  OD at 490 nm: 0.2000
Human tyrosinase; time 20 min
  OD at 490 nm: 0.2115
Human tyrosinase; Compound at 1.12 mM, T = 20 min
  Inhibitor efficacy (%): 13.7%

## Oc1ccc(OC2CCCCO2)cc1 (stereo not shown) [Deoxyarbutin, reference compound]
[2]; Ringer's solution pH 5.5 at 70° C., 24 H
  % Hydroquinone released: 11.83%
[2]; Ringer's solution pH 8.5 at 70° C., 24 H
  % Hydroquinone released: 88.76%
[2]; Synthetic perspiration at RT, 48 H
  % Hydroquinone released: 128.61%
[2]; Water at room temperature, 14 Days
  % Hydroquinone released: 4.20%
[3]
  Flux, mean (n = 3): 3.98 μg/h/cm^2
[4]; mean of 4 tests
  Calculated IC50 Mean: 53 µg/mL
[4]; read-out: IC50
  IC50: 272 µM
[4]; time 20 min
  Calculated IC50 Test #1: 26 µg/mL
  Calculated IC50 Test #2: 45 µg/mL
  Calculated IC50 Test #3: 80 µg/mL
  Calculated IC50 Test #4: 60 µg/mL
